The values below come from ChEMBL document CHEMBL1129675, “New directions in antibacterial research” (1996).

The structures appear in SMILES notation. In brackets after ≈: the same amount, converted by molar mass. Activity calls are given as the source filed them. The calls are words filed in the database; no cut-off is given here. Starred links: 1 amine or outer side, 2 acyl side, 3 side chain; linkers in the order of their positions; H or OH if unused. Positions of bridges follow the written chain, without caps; N, C: chain ends. Non-standard residues stand in square brackets, D forms with d. Residues, ends and D or L forms follow the SMILES beside them. X1 = O=C([C@@H](N[*:1])c1ccc(O[C@H]2OC(CO)[C@@H](O)[C@@H](O)[C@@H]2O[C@H]2O[C@@H](CO)[C@@H](O)[C@H](O)[C@H]2O)cc1)[*:2]; X4 = CC(C)CC/C=C\C=C/C(=O)NC(CC(N)=O)C(=O)CC(C(=O)[*:1])C(O[*:2])C(N)=O; X2 = CC(C)C/C=C\C=C/C(=O)NC(CC(N)=O)C(=O)CC(C(=O)[*:1])C(O[*:2])C(N)=O; X3 = CCC/C=C\C=C/C(=O)NC(CC(N)=O)C(=O)CC(C(=O)[*:1])C(O[*:2])C(N)=O; Hpg(3-Cl) = N[C@H](C(=O)O)c1ccc(O)c(Cl)c1; Hpg = N[C@H](C(=O)O)c1ccc(O)cc1; Orn = NCCC[C@H](N)C(=O)O

Assay [1] deals with Staphylococcus aureus. The assay is described as follows: Inhibitory activity against MRSA. In kind it is functional.
Another assay concerns Streptococcus pneumoniae. The assay is described as follows: Inhibitory activity against Streptococcus pneumoniae. It is filed as functional.
Assay [2] in a line: Inhibitory activity against VanB enterococci; Range is 0.016-1 ug/mL. In kind it is functional.
The test system of a further assay is Enterococcus faecalis. The assay is described as follows: Inhibitory activity against VanA strain of E. faecalis; Range is 0.03-2 ug/mL. In kind it is functional.
In a further assay the test system is Streptococcus pyogenes. As to the kind of experiment: Inhibitory activity against Streptococcus pyogenes. In kind it is functional.
For assay [3], the system named is Enterococcus faecium. The assay is described as follows: Inhibitory activity against VanA strain of E. faecium; Range is 0.03-2 ug/mL. In kind it is functional.
The test system of assay [4] is Staphylococcus epidermidis. The assay is described as follows: Inhibitory activity against methicillin-sensitive Staphylococcus epidermidis (MSSE). In kind it is functional.
The subject of the next assay is Haemophilus influenzae. The assay is described as follows: Inhibitory activity against Haemophilus influenzae. It is filed as functional.
Assay [5] deals with Staphylococcus aureus. The assay is described as follows: Inhibitory activity against MSSA. In kind it is functional.
In a further assay the test system is Bacteroides fragilis. The assay is described as follows: Inhibitory activity against Bacteroides fragilis. In kind it is functional.
Assay [6] concerns Enterococcus faecium. The assay is described as follows: Inhibitory activity against Enterococcus faecium. It is filed as functional.
The test system of a further assay is Bacteria. The assay is described as follows: Inhibitory activity against Corynebacterium. It is filed as functional.
Assay [7] relates to Staphylococcus epidermidis. The assay is described as follows: Inhibitory activity against methicillin-resistant Staphylococcus epidermidis (MRSE). It is filed as functional.
A further assay deals with Moraxella catarrhalis. The assay is described as follows: Inhibitory activity against Moraxella catarrhalis. In kind it is functional.
The subject of a further assay is Pseudomonas aeruginosa. The assay is described as follows: Antibacterial activity against Pseudomonas aeruginosa was determined; Active. It is filed as functional, organism-based.
Assay [8] can be described thus: Inhibitory activity against Leuconostoc species. In kind it is functional.
A short description of assay [9]: Inhibitory activity against Pediococcus species. In kind it is functional.
A further assay has as its system Enterococcus. The assay is described as follows: Inhibitory activity against Vancomycin resistant enterococci. In kind it is functional.
Assay [10] can be described thus: Inhibitory activity against Lactobacillus species. The following applies: Bacteria. In kind it is functional.
Assay [11] has as its system Staphylococcus aureus. The assay is described as follows: Antibacterial activity against MRSA was determined; Active. It is filed as functional, organism-based.

A word on the MIC: it is the lowest concentration found to suppress growth. A lower MIC goes with greater potency.

Take `CN[C@H](CC(C)C)C(=O)N[C@H]1C(=O)N[C@@H](CC(N)=O)C(=O)N[C@H]2C(=O)N[C@H]3C(=O)N[C@](C)(C(=O)N[C@H](C(=O)O)c4cc(O)cc(O)c4-c4cc3ccc4O)[C@H](C[C@H]3C[C@](C)(N)[C@@H](O)[C@H](C)O3)c3ccc(c(Cl)c3)Oc3cc2cc(c3O[C@@H]2O[C@H](CO)[C@@H](O)[C@H](O)[C@H]2O[C@@H]2C[C@](C)(NCc3ccc(-c4ccc(Cl)cc4)cc3)[C@@H](O)[C@H](C)O2)Oc2ccc(cc2Cl)[C@H]1O`: the minimal inhibitory concentration (MIC) in the assay on Staphylococcus aureus [1] is at most 0.5 µg/mL; in the assay with Streptococcus pneumoniae it was under 8 ng/mL; in [2], 0.016 µg/mL (≈ 0.00886 µM); against Enterococcus faecalis, 0.03 µg/mL (≈ 0.0166 µM); in the assay with Streptococcus pyogenes, under 0.06 µg/mL; in the assay with Enterococcus faecium [3], 0.03 µg/mL (≈ 0.0166 µM).
Turning to `CN[C@H](CC(C)C)C(=O)N[C@H]1C(=O)N[C@@H](CC(N)=O)C(=O)N[C@H]2C(=O)N[C@H]3C(=O)N[C@](C)(C(=O)N[C@H](C(=O)O)c4cc(O)cc(O)c4-c4cc3ccc4O)[C@H](C[C@H]3C[C@](C)(N)[C@@H](O)[C@H](C)O3)c3ccc(c(Cl)c3)Oc3cc2cc(c3O[C@@H]2O[C@H](CO)[C@@H](O)[C@H](O)[C@H]2O[C@@H]2C[C@](C)(NCc3ccc(Oc4ccccc4)cc3)[C@@H](O)[C@H](C)O2)Oc2ccc(cc2Cl)[C@H]1O`, the MIC in the assay with Staphylococcus aureus [1] was at most 0.5 µg/mL; against Streptococcus pneumoniae it was under 8 ng/mL; in assay [2] it was 0.016 µg/mL (≈ 0.00895 µM); in the assay with Enterococcus faecalis, 0.03 µg/mL (≈ 0.0168 µM); in the assay with Streptococcus pyogenes it was under 0.06 µg/mL; in the assay with Enterococcus faecium [3] it was 0.03 µg/mL (≈ 0.0168 µM).
Turning to `CN(C)c1ccc(O)c2c1C[C@H]1C[C@H]3[C@H](N(C)C)C(O)=C(C(N)=O)C(=O)[C@@]3(O)C(O)=C1C2=O` [MINOCYCLINE], the MIC90 in the assay on Staphylococcus aureus [1] was 16 µg/mL (≈ 35 µM).
Take `CC(=O)NC[C@H]1CN(c2ccc(N3CCOCC3)c(F)c2)C(=O)O1` [LINEZOLID]: the MIC90 against Staphylococcus aureus [1] was 4 µg/mL (≈ 11.9 µM); against Streptococcus pneumoniae it was 1 µg/mL (≈ 2.96 µM); in assay [4], 2 µg/mL (≈ 5.93 µM); in the assay on Streptococcus pyogenes it was 2 µg/mL (≈ 5.93 µM); against Haemophilus influenzae it was 16 µg/mL (≈ 47.4 µM); against Staphylococcus aureus [5], 4 µg/mL (≈ 11.9 µM). In addition, the MIC90 stood at 4 µg/mL (≈ 11.9 µM) in the assay with Bacteroides fragilis; 4 µg/mL (≈ 11.9 µM) against Enterococcus faecium [6]; 0.5 µg/mL (≈ 1.48 µM) in the assay on Bacteria; 2 µg/mL (≈ 5.93 µM) in [7]; 4 µg/mL (≈ 11.9 µM) against Moraxella catarrhalis.
For the molecule `CN(C)[C@@H]1C(=O)C(C(N)=O)=C(O)[C@@]2(O)C(=O)C3=C(O)c4c(O)cccc4[C@H](CSCCCCl)C3[C@H](O)C12` (some centres undefined), the MIC90 in the assay with Staphylococcus aureus [1] came to 2 µg/mL (≈ 3.62 µM).
For the molecule `C[C@@H]1[C@H](NC(=O)/C(=N\OCc2cc3cc(O)c(O)cc3cc2C(=O)O)c2csc(N)n2)C(=O)N1S(=O)(=O)O`, the result in the assay with Pseudomonas aeruginosa was Active.
On to `CC(C)C/C=C\C=C/C(=O)NC(CC(N)=O)C(=O)CC1C(=O)N[C@@H](c2ccc(O)cc2)C(=O)N[C@@H](CCCN)C(=O)N[C@@H]([C@@H](C)O)C(=O)N[C@@H](c2ccc(O)cc2)C(=O)N[C@@H](c2ccc(O)cc2)C(=O)N[C@@H]([C@@H](C)O)C(=O)N[C@@H](Cc2ccccc2)C(=O)N[C@@H](CCCN)C(=O)N[C@@H](c2ccc(O[C@H]3OC(CO)[C@@H](O)[C@@H](O)[C@@H]3O[C@H]3O[C@@H](CO)[C@@H](O)[C@H](O)[C@H]3O)cc2)C(=O)N[C@@H]([C@@H](C)O)C(=O)N[C@@H](c2ccc(O)cc2)C(=O)NCC(=O)N[C@@H](CC(C)C)C(=O)N[C@@H](C)C(=O)N[C@@H](c2ccc(O)c(Cl)c2)C(=O)OC1C(N)=O` (some centres undefined) ([Hpg][Orn]T[Hpg][Hpg]TF[Orn][X1]T[Hpg]GLA[Hpg(3-Cl)]; linker N-C via X2), for which the MIC90 in assay [8] is at most 0.25 µg/mL; in assay [9], at most 0.25 µg/mL; against Enterococcus, 0.5 µg/mL (≈ 0.196 µM); in assay [10], at most 0.25 µg/mL.
For `Cc1nc(SCC2=C(C(=O)O)N3C(=O)[C@@H](NC(=O)/C(=N\OCc4cc(=O)c(O)cn4O)c4csc(N)n4)[C@H]3CS2)sc1C(=O)O`, the outcome in the assay with Pseudomonas aeruginosa was Active.
As for `CCCCC1CCC(CN[C@@]2(C)C[C@@H](O[C@H]3[C@H](Oc4c5cc6cc4Oc4ccc(cc4Cl)[C@@H](C[C@H]4C[C@](C)(N)[C@@H](O)[C@H](C)O4)[C@]4(C)NC(=O)[C@H](NC(=O)[C@@H]6NC(=O)[C@H](CC(N)=O)NC(=O)[C@H](NC(=O)[C@@H](CC(C)C)NC)[C@H](O)c6ccc(c(Cl)c6)O5)c5ccc(O)c(c5)-c5c(O)cc(O)cc5[C@@H](C(=O)O)NC4=O)O[C@H](CO)[C@@H](O)[C@@H]3O)O[C@@H](C)[C@@H]2O)CC1` (some centres undefined), the minimum inhibitory concentration (MIC) in the assay with Staphylococcus aureus [1] is at most 0.5 µg/mL; against Streptococcus pneumoniae it was under 8 ng/mL; in [2], 0.016 µg/mL (≈ 0.00911 µM); against Enterococcus faecalis, 0.03 µg/mL (≈ 0.0171 µM); against Streptococcus pyogenes, under 0.06 µg/mL; against Enterococcus faecium [3] it was 0.03 µg/mL (≈ 0.0171 µM).
Consider `C[C@H](O)[C@H]1C(=O)N2C(C(=O)[O-])=C(Sc3nc(-c4cc[n+](CC(N)=O)cc4)cs3)[C@H](C)[C@H]12`, for which the outcome in the assay with Staphylococcus aureus [11] was Active.
`C[C@@H]1[C@H](NC(=O)/C(=N\OCC(=O)NNC(=O)c2nc3cc(O)c(O)cc3nc2C(=O)O)c2csc(N)n2)C(=O)N1S(=O)(=O)O`: the outcome in the assay with Pseudomonas aeruginosa was Active.
Consider `C[C@@H](O)[C@H]1C(=O)N2C(C(=O)O)=C(SCCNC=N)C[C@H]12`, for which the outcome with Pseudomonas aeruginosa was Active.
As to `CCC/C=C\C=C/C(=O)NC(CC(N)=O)C(=O)CC1C(=O)N[C@@H](c2ccc(O)cc2)C(=O)N[C@@H](CCCN)C(=O)N[C@@H]([C@@H](C)O)C(=O)N[C@@H](c2ccc(O)cc2)C(=O)N[C@@H](c2ccc(O)cc2)C(=O)N[C@@H]([C@@H](C)O)C(=O)N[C@@H](Cc2ccccc2)C(=O)N[C@@H](CCCN)C(=O)N[C@@H](c2ccc(O[C@H]3OC(CO)[C@@H](O)[C@@H](O)[C@@H]3O[C@H]3O[C@@H](CO)[C@@H](O)[C@H](O)[C@H]3O)cc2)C(=O)N[C@@H]([C@@H](C)O)C(=O)N[C@@H](c2ccc(O)cc2)C(=O)NCC(=O)N[C@@H](CC(C)C)C(=O)N[C@@H](C)C(=O)N[C@@H](c2ccc(O)c(Cl)c2)C(=O)OC1C(N)=O` (some centres undefined) ([Hpg][Orn]T[Hpg][Hpg]TF[Orn][X1]T[Hpg]GLA[Hpg(3-Cl)]; linker N-C via X3), the MIC90 in assay [8] was at most 0.25 µg/mL; in assay [9], at most 0.25 µg/mL; with Enterococcus, 0.5 µg/mL (≈ 0.197 µM); in assay [10], at most 0.25 µg/mL.
Consider `CC(C)CC/C=C\C=C/C(=O)NC(CC(N)=O)C(=O)CC1C(=O)N[C@@H](c2ccc(O)cc2)C(=O)N[C@@H](CCCN)C(=O)N[C@@H]([C@@H](C)O)C(=O)N[C@@H](c2ccc(O)cc2)C(=O)N[C@@H](c2ccc(O)cc2)C(=O)N[C@@H]([C@@H](C)O)C(=O)N[C@@H](Cc2ccccc2)C(=O)N[C@@H](CCCN)C(=O)N[C@@H](c2ccc(O[C@H]3OC(CO)[C@@H](O)[C@@H](O)[C@@H]3O[C@H]3O[C@@H](CO)[C@@H](O)[C@H](O)[C@H]3O)cc2)C(=O)N[C@@H]([C@@H](C)O)C(=O)N[C@@H](c2ccc(O)cc2)C(=O)NCC(=O)N[C@@H](CC(C)C)C(=O)N[C@@H](C)C(=O)N[C@@H](c2ccc(O)c(Cl)c2)C(=O)OC1C(N)=O` (some centres undefined) ([Hpg][Orn]T[Hpg][Hpg]TF[Orn][X1]T[Hpg]GLA[Hpg(3-Cl)]; linker N-C via X4), for which the MIC90 is at most 0.25 µg/mL in [8], at most 0.25 µg/mL in assay [9], 0.5 µg/mL (≈ 0.195 µM) against Enterococcus and at most 0.25 µg/mL in assay [10].
With `CC(=O)NC[C@H]1CN(c2ccc(N3CCN(C(=O)CO)CC3)c(F)c2)C(=O)O1` [EPEREZOLID], the MIC90 against Staphylococcus aureus [1] came to 4 µg/mL (≈ 10.1 µM); in the assay on Streptococcus pneumoniae, 0.5 µg/mL (≈ 1.27 µM); in [4] it was 1 µg/mL (≈ 2.54 µM); with Streptococcus pyogenes, 1 µg/mL (≈ 2.54 µM); in the assay with Haemophilus influenzae it was 16 µg/mL (≈ 40.6 µM); against Staphylococcus aureus [5], 4 µg/mL (≈ 10.1 µM). The MIC90 in the assay on Bacteroides fragilis is 16 µg/mL (≈ 40.6 µM); with Enterococcus faecium [6], 2 µg/mL (≈ 5.07 µM); in the assay on Bacteria, 0.5 µg/mL (≈ 1.27 µM); in assay [7], 1 µg/mL (≈ 2.54 µM); in the assay on Moraxella catarrhalis, 4 µg/mL (≈ 10.1 µM).
